Data from publication PMC6152192, “Novel Methylselenoesters as Antiproliferative Agents” (Molecules : A Journal of Synthetic Chemistry and Natural …, 2017).

Key:
[1] = Methylselenol (CH3SeH) release by hydrolysis, quantified with DTNB (Ellman's reagent); assay type: physicochemical; details: 100 μM compound, 100 μM DTNB, phosphate buffer pH 8, 24 h
Description: The new compounds were designed as CH3SeH precursors. The chemical features of the selenoester functional group facilitate a nucleophilic attack (i.e., with water) which would deliver the CH3SeH residue. In order to verify if CH3SeH could be released from the molecules by hydrolysis and if the rate differed among the compounds, the reaction of CH3SeH with 5,5′-dithiobis(2-nitrobenzoic acid) (DTNB or Ellman’s reagent) in aqueous environment was monitored. Briefly, when the disulfide bridge of DTNB reacts with thiols or selenols, 2-nitro-5-thiobenzoate (TNB^2−) is released and the mixed disulfide or selenylsulfide is formed. Each released CH3SeH produces one yellow TNB^2− species, whose absorbance can be quantified at 412 nm (Figure 2A).
A stock solution of the compounds was prepared in anhydrous DMSO (10 mM). The compounds were placed in a 96-well plate in a final concentration of 100 μM. Reaction started after adding 200 μL of an aqueous 100 mM Na2HPO4 buffer (1 mM EDTA, pH = 8), containing 100 μM of DTNB from a freshly prepared 10 mM ethanolic stock, which were added just before starting the reaction. The DTNB concentration was quantified with a cysteine standard curve ([…]). Blanks for the compounds in the absence of DTNB were also included as well as a blank to measure the slow but spontaneous hydrolysis of DTNB, which was further subtracted from all the values. Absorbance was read at 412 nm in a FLUOstar Omega microplate reader (BMG LabTech, Ortenberg, Germany). Results represent means of triplicate values ± SD.
Figure 2 CH3SeH release rates are dependent on the chemical features of the molecule. Released CH3SeH was quantified through reaction with Ellman’s reagent (DTNB). (A) Proposed reaction between CH3SeH and DTNB; (B) Quantification of TNB^2− at different times. The compounds were tested at 100 μM in 200 μL of 100 mM phosphate buffer (1 mM EDTA, pH = 8). DTNB concentration was also 100 μM. Absorbance was followed at 412 nm over 72 h. A cysteine standard curve (7.5–150 μM) was used to calculate the concentration of TNB^2− over time. Compounds showing less than 15% hydrolysis at 72 h are not included, except for compound 5 as example. Error bars indicate SD of triplicates.

[2] = test system: HTB-54 (lung carcinoma); experiment: MTT viability assay, HTB-54; assay type: cell-based; details: HTB-54, 72 h
Protocol: (§1) The novel compounds were tested against a panel of different cancer lines: PC-3 (prostate adenocarcinoma), MCF7 (mammary adenocarcinoma), HTB-54 (lung carcinoma), K-562 (chronic myelogenous leukemia) and HT-29 (colorectal adenocarcinoma). Two non-malignant cell lines, BEAS-2B (bronchial epithelial) and 184B5 (mammary epithelial) were also included to evaluate the toxicity of the novel synthesized compounds. The antiproliferative activity was measured with the [3-(4,5-dimethylthiazol-2-yl)-2,5-diphenyltetrazolium bromide] (MTT) assay after 72 h treatment. Six concentrations ranging from 0.1 to 100 μM were tested. MSA is largely known as the main CH3SeH putative precursor and was therefore included as positive control. The following parameters were calculated: GI50 (concentration which reduces the growth by 50%), TGI (concentration completely inhibiting growth) and LC50 (concentration that kills 50% of the cells).
(§2) All cells were purchased from the American Type Culture Collection (ATCC, Barcelona, Spain). HT-29 (colorectal adenocarcinoma), HTB-54 (grade III lung carcinoma), MCF7 (mammary adenocarcinoma), PC-3 (grade IV prostate adenocarcinoma) and K-562 (chronic myelogenous leukemia) were cultured in RPMI (Gibco, Madrid, Spain), 10% FBS (Gibco), 100 units/mL penicillin and 100 μg/mL streptomycin (Gibco). BEAS-2B cell line (normal epithelial lung) was cultured in DMEM (Gibco), 10% FBS, 100 units/mL penicillin and 100 μg/mL streptomycin. 184B5 (normal mammary gland) cell line was cultured in DMEM:F12 supplemented with 5% FBS, 1 × ITS (Lonza, Barcelona, Spain), 100 nM hydrocortisone (Sigma-Aldrich), 2 mM sodium pyruvate (Lonza), 20 ng/mL EGF (Sigma-Aldrich), 0.3 nM trans-retinoic acid (Sigma-Aldrich), 100 units/mL penicillin and 100 µg/mL streptomycin. Cells were cultured at 37 °C under 5% CO2.
(§3) Cell viability after treatment was assessed by the well-known 3-(4,5-dimethyl-thiazol-2-yl)-2,5-diphenyltetrazolium bromide (MTT, Sigma-Aldrich) assay. Briefly, 10,000 cells were seeded in 96-well plates, treated and incubated for 72 h. Dilutions of the compounds in cell medium were freshly prepared from a 0.01 M stock in DMSO. After treatment, 50 μL of MTT solution in PBS (2 mg/mL) were added and cells were incubated for 4 h. Medium was removed and 150 μL of DMSO was added to dissolve the formed formazan crystals. Absorbance was read at 550 nm in a microplate absorbance reader (Sunrise, Tecan, Männedorf, Switzerland).

[3] = test system: MCF7 (mammary adenocarcinoma); experiment: MTT viability assay, MCF7; assay type: cell-based; details: MCF7, 72 h
Protocol: as §1, §2, §3

[4] = MTT viability assay, 184B5; assay type: cell-based; details: human
Protocol: as §1, §2, §3

[5] = test system: 184B5 (non-malignant mammary epithelium); experiment: MTT viability assay, 184B5; assay type: cell-based; details: 184B5 non-malignant, 72 h, MTT
Protocol: as §1, §2, §3

[6] = MTT viability assay, BEAS-2B; assay type: cell-based; details: human
Protocol: as §1, §2, §3

[7] = test system: BEAS-2B (non-malignant bronchial epithelial); experiment: MTT viability assay, BEAS-2B; assay type: cell-based; details: BEAS-2B non-malignant, 72 h, MTT
Protocol: as §1, §2, §3

[8] = test system: HT-29 (colorectal adenocarcinoma); experiment: MTT viability assay, HT-29; assay type: cell-based; details: HT-29, 72 h
Protocol: as §1, §2, §3

[9] = test system: PC-3 (prostate adenocarcinoma); experiment: MTT viability assay, PC-3; assay type: cell-based
Protocol: as §1, §2, §3

[10] = test system: K-562 (chronic myelogenous leukemia); experiment: MTT viability assay, K-562; assay type: cell-based
Protocol: as §1, §2, §3

Which “CH3SeH release at 24 h” value [1] does the source give for `C[Se]C(=O)c1cnccn1` [Compound 3, Methyl pyrazinecarboselenoate] here?
Its value is “completely released”.

What about the GI50 ([2]; MTT) of the same molecule?
The GI50 was 6.2 ± 1.5 µM.

What about the TGI ([2]; MTT) of the same molecule?
The TGI was 21.1 ± 4.1 µM.

And the CC50 ([2]; read-out: LC50)?
Its CC50 is 71.1 ± 3.8 µM.

And the CC50 ([3]; Homo sapiens, read-out: LC50)?
The CC50 was 40.1 ± 4.4 µM.

What about the GI50 ([3]; Homo sapiens, MTT) of the same molecule?
The GI50 was 3.5 ± 0.8 µM.

And the TGI ([3]; MTT)?
Its TGI is 7.2 ± 1.0 µM.

And the CC50 at 72 h [4]?
Its CC50 at 72 h is 17.6 ± 4.4 µM.

What about the TGI [5] of the same molecule?
Its TGI is 6.6 ± 0.9 µM.

What about the GI50 ([5]; Homo sapiens) of the same molecule?
Its GI50 is 3.1 ± 0.5 µM.

And the CC50 at 72 h [6]?
Its CC50 at 72 h is 8.6 ± 0.5 µM.

And the TGI [7]?
The TGI was 6.1 ± 0.5 µM.

What about the GI50 ([7]; Homo sapiens) of the same molecule?
Its GI50 is 3.6 ± 0.6 µM.

What about the TGI ([8]; MTT) of the same molecule?
Its TGI is 9.1 ± 0.8 µM.

What about the CC50 ([8]; Homo sapiens, read-out: LC50) of the same molecule?
Its CC50 is over 100 µM.

What about the GI50 ([8]; Homo sapiens, MTT) of the same molecule?
The GI50 was 4.7 ± 0.6 µM.

And the CC50 ([9]; 72 h, read-out: LC50)?
Its CC50 is 60.5 ± 4.3 µM.

And the GI50 ([9]; PC-3, 72 h, MTT)?
The GI50 was 5.4 ± 1.1 µM.

What about the TGI ([9]; PC-3, 72 h, MTT) of the same molecule?
The TGI was 15.3 ± 1.7 µM.

And the CC50 ([10]; Homo sapiens, K562, 72 h, read-out: LC50)?
The CC50 was 87.9 ± 2 µM.

What about the GI50 ([10]; Homo sapiens, K562, K-562, 72 h, MTT) of the same molecule?
Its GI50 is 30.2 ± 2.2 µM.

What about the TGI ([10]; K-562, 72 h, MTT) of the same molecule?
Its TGI is 59.1 ± 2.1 µM.
